Measured values as given in patent publication US10238641B2, “Materials and methods for diagnosis, prevention and/or treatment of stress disorders and conditions associated with A-beta peptide aggregation” (The United States of America as represented by the …, priority 2008, dated 2019).

Tests used:
ERK1/2 = assay: BDNF-stimulated pERK1/2 in primary cortical neurons, Western blot; type: cell-based; settings: BDNF 100 ng/ml plus cotinine 10 μM, 1 h
[1] = tested on: sensorimotor abilities in mice; assay: Rotarod test; type: in vivo; settings: two weeks of cotinine 1 mg/kg and 5 mg/kg
Experimental: At the end of the behavioral testing for FC, mice treated for two weeks with vehicle, cotinine 1 mg/kg and 5 mg/kg were tested in the rotarod as follows. The rotarod test was performed in an apparatus consisting of a 3 cm in diameter rod that was started at 4 rpm, accelerating up to 40 rpm for 5 min. Mice were tested for the time spent on the rod during each trial for a total of four trails per day. Testing during each trial was finished when the mouse fell off the rod and onto a spring-cushioned lever. The results are expressed as latency to fall in seconds (time spent on the rod) with 8 mice/group/treatment.
To discard a confounding effect of cotinine on learning due to changes in motor coordination and fatigue, we tested mice in the rotarod test after 2 weeks of treatment with vehicle or cotinine at the doses indicated in the figure below.

SMILES: CN1C(=O)CC[C@H]1c1cccnc1 [cotinine]
- BDNF-stimulated phosphorylation of ERK (ERK1/2): did not affect the BDNF-stimulated phosphorylation of ERK
- sensorimotor abilities, latency to fall (rotarod) [1]: did not affect sensorimotor abilities
